Experimental data published in US12102619B2 (Jazz Pharmaceuticals Research UK Limited, priority 2020, dated 2024).
Like-named read-outs stand apart in the source and are kept apart here.

Tests used:
[1] = Steady state AUC of CBD by daily dose; conditions: human, in vivo
Text: In some embodiments, the AUCt1-t2 is reported as a geometric mean (% coefficient of variation).

[2] = Adverse effects of elevated CBD levels; assay type: in vivo
Text: Transaminase can lead to hepatic dysfunction, including unexplained nausea, vomiting, right upper quadrant abdominal pain, fatigue, anorexia, or jaundice and/or dark urine. Elevated exposure of everolimus exposure is known to cause non-infectious pneumonitis, infections, severe hypersensitivity to reactions, angioedema, stomatitis, renal failure, impaired wound healing, metabolic disorders, myelosuppression, risk of infection or reduced immune response with vaccination, embryo-fetal toxicity, and stomatis, respiratory tract infection. The methods of the disclosure reduce the incidence of one or more of the above side effects.

[3] = Clinical DDI study of steady-state CBD with orally dosed midazolam (GWEP17028); assay type: in vivo; conditions: CBD at steady-state (750 mg bid, fed state), dosed concomitantly
Text: The everolimus label contains no instructions to adjust the dose when administered with a P-gp inhibitor that is not also a moderate or strong CYP3A4 inhibitor.

[4] = coadministered P-gp and CYP3A4 inhibitor; cited from earlier work
[5] = once-daily dosing; cited from earlier work
[6] = clinical; conditions: human, in vivo, 5 mg
Text: The duration of the trial was approximately 9 weeks, which includes a screening period (up to 4 weeks), a treatment period (18 days) and a safety follow-up period (2 weeks). After signing the informed consent form (ICF), participants enter the screening period (Day −28 to −1). On Day −1, screened participants who continued to meet eligibility criteria were admitted to the clinical research unit (CRU) at approximately […] and enrolled into the trial. On Day 1, participants received everolimus, 30 minutes after starting a standard meal. […] On Day 18, participants were discharged from the CRU once all assessments were completed.
The time of the meal consumed at the site during days of IMP administration was recorded, as was the dose and dosing time of IMP (as appropriate) relative to sampling times.
Log transformed Cmax, AUC(0-∞), and AUC(0-t) parameters for everolimus were analyzed using a linear mixed-effects model with a fixed effect for treatment and a random effect for participant. The treatment differences are back transformed to present the ratios of geometric means and the corresponding 90% confidence intervals (CIs).

[7] = cited from earlier work
[8] = biological target: CYP3A4 (Homo sapiens, UniProt P08684); conditions: oral dose of midazolam coadministered; cited from earlier work
[9] = biological target: BSEP (Homo sapiens, UniProt O95342); assay: Inhibition of BSEP-mediated transport; assay type: in vitro ADME; conditions: at clinically relevant concentrations
Text: (§1) The pharmacological properties of CBD are not fully elucidated. […] 7-COOH-CBD is an inhibitor of transport mediated via BCRP and BSEP at clinically relevant concentrations.

[10] = biological target: T1, BCRP (Homo sapiens, UniProt Q9UNQ0); assay: Inhibition of BCRP-mediated transport; assay type: in vitro ADME; conditions: at clinically relevant concentrations
T1 sequence (Q9UNQ0 1-655): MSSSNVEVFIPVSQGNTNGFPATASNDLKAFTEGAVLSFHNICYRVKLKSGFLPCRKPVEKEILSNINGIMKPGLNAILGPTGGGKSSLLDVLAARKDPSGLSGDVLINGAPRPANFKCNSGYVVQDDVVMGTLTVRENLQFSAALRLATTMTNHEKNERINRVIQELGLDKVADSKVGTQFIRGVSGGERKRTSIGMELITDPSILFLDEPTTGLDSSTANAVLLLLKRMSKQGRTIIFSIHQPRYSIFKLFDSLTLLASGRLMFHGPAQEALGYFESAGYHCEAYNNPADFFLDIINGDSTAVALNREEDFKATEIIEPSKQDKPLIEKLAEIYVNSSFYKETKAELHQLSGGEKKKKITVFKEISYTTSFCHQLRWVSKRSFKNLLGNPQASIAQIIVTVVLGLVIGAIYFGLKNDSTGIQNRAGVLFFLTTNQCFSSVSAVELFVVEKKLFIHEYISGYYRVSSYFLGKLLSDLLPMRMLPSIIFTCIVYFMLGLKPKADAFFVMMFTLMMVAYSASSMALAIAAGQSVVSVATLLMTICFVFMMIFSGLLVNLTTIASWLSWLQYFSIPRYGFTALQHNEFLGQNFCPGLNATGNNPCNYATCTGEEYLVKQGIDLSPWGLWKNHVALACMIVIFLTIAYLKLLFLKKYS
Text: as §1

[11] = biological target: P-gp (Homo sapiens, UniProt P08183); assay: P-gp substrate status of the CBD metabolite; assay type: in vitro ADME
Text: as §1

Sequence of CYP3A4 (P08684 whole entry): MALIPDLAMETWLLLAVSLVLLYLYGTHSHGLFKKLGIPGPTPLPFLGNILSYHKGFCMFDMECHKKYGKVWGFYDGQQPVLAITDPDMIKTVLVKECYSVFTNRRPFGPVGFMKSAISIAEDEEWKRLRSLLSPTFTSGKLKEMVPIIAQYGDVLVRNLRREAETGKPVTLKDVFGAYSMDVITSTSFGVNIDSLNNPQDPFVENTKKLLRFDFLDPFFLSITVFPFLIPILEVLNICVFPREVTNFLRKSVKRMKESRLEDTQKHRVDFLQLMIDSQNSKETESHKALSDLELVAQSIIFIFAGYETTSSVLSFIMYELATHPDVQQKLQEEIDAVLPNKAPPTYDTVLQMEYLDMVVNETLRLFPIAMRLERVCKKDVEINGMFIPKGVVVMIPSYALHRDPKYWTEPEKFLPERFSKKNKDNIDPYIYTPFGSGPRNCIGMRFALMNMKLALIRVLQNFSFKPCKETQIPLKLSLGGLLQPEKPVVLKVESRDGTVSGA
Sequence of P-gp (P08183 whole entry): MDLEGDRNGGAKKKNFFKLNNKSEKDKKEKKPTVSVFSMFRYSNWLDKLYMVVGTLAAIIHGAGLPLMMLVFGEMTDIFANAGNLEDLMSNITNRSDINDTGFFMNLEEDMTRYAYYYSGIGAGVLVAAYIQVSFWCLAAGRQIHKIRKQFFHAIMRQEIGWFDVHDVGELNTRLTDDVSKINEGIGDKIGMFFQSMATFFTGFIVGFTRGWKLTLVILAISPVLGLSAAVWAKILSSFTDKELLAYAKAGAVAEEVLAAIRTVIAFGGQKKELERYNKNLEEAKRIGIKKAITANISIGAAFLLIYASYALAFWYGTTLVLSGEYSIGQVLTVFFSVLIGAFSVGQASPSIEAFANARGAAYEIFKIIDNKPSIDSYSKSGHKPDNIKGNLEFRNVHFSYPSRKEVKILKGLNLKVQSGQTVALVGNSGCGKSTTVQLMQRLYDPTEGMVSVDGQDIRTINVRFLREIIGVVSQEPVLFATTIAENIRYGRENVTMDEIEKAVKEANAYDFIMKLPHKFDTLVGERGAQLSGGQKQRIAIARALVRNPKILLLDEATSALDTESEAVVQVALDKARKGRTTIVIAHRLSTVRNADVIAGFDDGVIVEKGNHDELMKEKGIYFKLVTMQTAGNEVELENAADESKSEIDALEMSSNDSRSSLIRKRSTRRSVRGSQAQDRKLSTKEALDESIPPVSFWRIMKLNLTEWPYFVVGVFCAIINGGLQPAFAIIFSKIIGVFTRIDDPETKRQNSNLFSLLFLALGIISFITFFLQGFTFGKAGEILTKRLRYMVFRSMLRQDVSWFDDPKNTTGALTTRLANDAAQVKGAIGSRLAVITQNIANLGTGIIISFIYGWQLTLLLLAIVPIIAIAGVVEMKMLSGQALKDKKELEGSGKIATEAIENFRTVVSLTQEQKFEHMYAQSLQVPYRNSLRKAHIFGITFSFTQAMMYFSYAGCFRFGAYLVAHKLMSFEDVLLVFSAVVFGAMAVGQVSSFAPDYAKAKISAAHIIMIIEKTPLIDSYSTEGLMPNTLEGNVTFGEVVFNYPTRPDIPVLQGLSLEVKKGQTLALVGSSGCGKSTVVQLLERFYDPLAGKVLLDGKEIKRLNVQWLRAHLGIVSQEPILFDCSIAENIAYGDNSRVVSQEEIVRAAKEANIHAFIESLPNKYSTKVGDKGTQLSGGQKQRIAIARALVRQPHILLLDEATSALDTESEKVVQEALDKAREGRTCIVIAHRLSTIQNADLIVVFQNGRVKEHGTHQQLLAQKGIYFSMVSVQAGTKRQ
Sequence of BSEP (O95342 whole entry): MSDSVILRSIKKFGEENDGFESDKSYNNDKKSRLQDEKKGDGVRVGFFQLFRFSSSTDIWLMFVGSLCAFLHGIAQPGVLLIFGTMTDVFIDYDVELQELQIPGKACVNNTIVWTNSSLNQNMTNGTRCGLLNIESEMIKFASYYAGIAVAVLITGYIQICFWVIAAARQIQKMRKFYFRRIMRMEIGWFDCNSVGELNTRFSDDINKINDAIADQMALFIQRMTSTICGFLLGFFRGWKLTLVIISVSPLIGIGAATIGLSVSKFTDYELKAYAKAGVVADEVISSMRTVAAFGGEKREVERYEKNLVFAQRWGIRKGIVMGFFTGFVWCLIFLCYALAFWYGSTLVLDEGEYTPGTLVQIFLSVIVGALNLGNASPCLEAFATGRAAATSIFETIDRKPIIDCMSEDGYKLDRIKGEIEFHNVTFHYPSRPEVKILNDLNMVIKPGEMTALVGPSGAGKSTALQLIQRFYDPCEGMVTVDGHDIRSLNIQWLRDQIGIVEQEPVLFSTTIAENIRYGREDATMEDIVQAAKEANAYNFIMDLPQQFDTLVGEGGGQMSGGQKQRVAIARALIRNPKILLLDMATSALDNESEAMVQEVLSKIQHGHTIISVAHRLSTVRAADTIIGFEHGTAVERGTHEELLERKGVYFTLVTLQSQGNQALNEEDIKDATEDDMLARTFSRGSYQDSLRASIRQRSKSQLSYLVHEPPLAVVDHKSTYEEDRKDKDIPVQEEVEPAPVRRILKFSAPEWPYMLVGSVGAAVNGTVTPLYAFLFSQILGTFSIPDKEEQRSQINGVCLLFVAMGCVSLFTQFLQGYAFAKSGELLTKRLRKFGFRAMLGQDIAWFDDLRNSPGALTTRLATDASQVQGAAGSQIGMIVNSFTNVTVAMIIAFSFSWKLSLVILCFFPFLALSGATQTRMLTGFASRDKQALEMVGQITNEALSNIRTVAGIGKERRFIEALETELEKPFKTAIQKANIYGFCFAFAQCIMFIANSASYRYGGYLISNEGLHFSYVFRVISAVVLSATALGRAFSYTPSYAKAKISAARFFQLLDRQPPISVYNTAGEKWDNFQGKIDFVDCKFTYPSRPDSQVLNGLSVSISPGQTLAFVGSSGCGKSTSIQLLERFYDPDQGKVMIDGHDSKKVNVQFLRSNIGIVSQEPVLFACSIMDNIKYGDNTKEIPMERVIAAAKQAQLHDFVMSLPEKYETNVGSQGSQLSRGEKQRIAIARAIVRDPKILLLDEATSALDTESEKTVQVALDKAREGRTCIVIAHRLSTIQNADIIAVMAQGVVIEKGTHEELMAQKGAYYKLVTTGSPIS

`C=C(C)[C@@H]1CCC(C)=C[C@H]1c1c(O)cc(CCCCC)cc1O` [CBD, Cannabidiol] gave an AUC(0-t) ([1]; 5 mg/kg/day) of 241 ng·h/mL, an AUC(0-t) ([1]; 10 mg/kg/day) of 722 ng·h/mL and an AUC(0-t) ([1]; 20 mg/kg/day) of 963 ng·h/mL. For the same molecule, the AUC ([1]; 25 mg/kg/day) was 2520 ng·h/mL, the AUC ([1]; 50 mg/kg/day) was 2730 ng·h/mL and the “Adverse effects caused by elevated levels” value [2] was “transaminase elevation, rash, somnolence, sedation, lethargy, diarrhea, pyrexia, weight decreased, nasopharyngitis, irritability, oropharyngeal pain, and decreased appetite”. The “Effect on orally dosed midazolam PK parameters” value [3] was “no clinically significant effect”.

In the case of `CC(=O)N1CCN(c2ccc(OCC3COC(Cn4ccnc4)(c4ccc(Cl)cc4Cl)O3)cc2)CC1` (stereo not drawn) [ketoconazole], the “Increase of the AUC of everolimus” value [4] is listed as 15 fold and the “Increase of the Cmax of everolimus” value [4] is listed as 3.9 fold.

For `CC[C@H]1OC(=O)[C@H](C)[C@@H](O[C@H]2C[C@@](C)(OC)[C@@H](O)[C@H](C)O2)[C@H](C)[C@@H](O[C@@H]2O[C@H](C)C[C@H](N(C)C)[C@H]2O)[C@](C)(O)C[C@@H](C)C(=O)[C@H](C)[C@@H](O)[C@]1(C)O` [Erythromycin], the “Increase of the AUC of everolimus” value [4] is given as 4.4 fold and the “Increase of the Cmax of everolimus” value [4] is given as 2.0 fold.

In the case of `CO[C@H]1C[C@@H]2CC[C@@H](C)[C@@](O)(O2)C(=O)C(=O)N2CCCC[C@H]2C(=O)O[C@H]([C@H](C)C[C@@H]2CC[C@@H](OCCO)[C@H](OC)C2)CC(=O)[C@H](C)/C=C(\C)[C@@H](O)[C@@H](OC)C(=O)[C@H](C)C[C@H](C)/C=C/C=C/C=C/1C` [Everolimus], the Time to steady-state [5] is listed as at most 2 weeks, the AUC(0-inf) [6] is listed as 216 ng·h/mL and the AUC(0-t) [6] is listed as 95 ng·h/mL. For the same molecule, the Cmax [6] was 18 ng/mL, the “Everolimus AUC24, geometric mean±SD” value ([7]; 2.5 mg of everolimus) was 570 ± 195 ng·h/mL and the “Everolimus Cmaxss, geometric mean±SD” value ([7]; 2.5 mg of everolimus) was 62.1 ± 13.1 ng/mL. The “Everolimus Cminss, geometric mean±SD” value ([7]; 2.5 mg of everolimus) was 13.6 ± 9.0 ng/mL, the “Everolimus AUC24, geometric mean±SD” value ([7]; 5 mg of everolimus) was 716 ± 123 ng·h/mL and the “Everolimus Cmaxss, geometric mean±SD” value ([7]; 5 mg of everolimus) was 114 ± 36 ng/mL. The “Everolimus Cminss, geometric mean±SD” value ([7]; 5 mg of everolimus) was 17.4 ± 4.5 ng/mL, the “Everolimus tmax, median (range)” value ([7]; 5 mg of everolimus) was 48 min and the “Everolimus AUC24” value ([7]; 10 mg of everolimus) was 1470 ng·h/mL. For the same molecule, the “Everolimus Cmaxss” value ([7]; 10 mg of everolimus) was 139 ng/mL, the “Everolimus Cminss” value ([7]; 10 mg of everolimus) was 16.5 ng/mL and the “Increase in midazolam AUC0-inf” value [8] was 30%. For the same molecule, the “Increase in midazolam Cmax” value [8] was 25%.

For `C=C(C)[C@@H]1CCC(C(=O)O)=C[C@H]1c1c(O)cc(CCCCC)cc1O` [7-COOH-CBD, 7-carboxy-cannabidiol], the “Inhibition of transport mediated via BSEP” value [9] was “inhibitor”, the “Inhibition of transport mediated via BCRP” value [10] was “inhibitor” and the P-gp substrate status [11] was “substrate for P-gp”.
